Assay results as given in paper PMC11527929 (European Journal of Nuclear Medicine and Molecular Imaging, 2024).

Assays:
H69 xenografts [1] = experiment: In vivo treatment study, single PRRT dose; design: species or system athymic nude mice; conditions: for tumor doubling time: PARPi 10 mg/kg i.p. days 1–5 and 8–12, PRRT ~40 MBq single dose on day 3, untreated 3.6 days; for time after start of treatment to mean tumor volume of 400 mm^3: untreated 10 days
Protocol: Authorization for all animal experiments was obtained from the Regierung von Oberbayern. Mice were housed under specific-pathogen free conditions with access to mouse chow and water ad libitum. […] Animals were regularly monitored as defined in the license.
Mice in the PARPi and combination therapy groups received daily i.p. injections of PARPi on days 1–5 and 8–12 at a dose of 10 mg/kg. […] Length, width and depth of the subcutaneous tumors were measured daily using a caliper and tumor volume was calculated using the ellipsoid formula. Mice were weighed regularly after start of the treatment. Mice were euthanized when they reached pre-defined criteria. […] In the H69 cohort, one animal per group was euthanized 3 days after PRRT (or equivalent time) and tumor, bone and kidney tissues were processed for histopathology.

H69 cells = experiment: Cell viability, AlamarBlue HS assay; assay type: cell-based; conditions: Homo sapiens, NCI-H69, PARPi alone for 72 h, 3 independent experiments
Protocol: (§1) Cell viability was determined using the AlamarBlue high sensitivity (HS) assay (Thermo Fisher Scientific, #A50101). 5,000 cells per well were seeded in 96-well black clear F-bottom plates (H446) or 96-well black clear V-bottom plates (H69). H69 suspension cells were centrifuged and resuspended for each washing step. […] All wells, including untreated wells, contained 0.5% (v/v) DMSO throughout the assay. 96 h after seeding, medium was removed and resazurin (AlamarBlue HS) solution was added to each well at a final concentration of 10% (v/v) and incubated for 1 h at 37 °C before fluorescence was measured using a Biotek Synergy HT plate reader (Excitation: 540/35 nm, Emission: 590/20 nm). Relative viability was calculated in relation to “untreated” wells. We carried out three biological repeats with 3–6 technical replicates per plate. IC50-values were computed by applying the nonlinear regression function (Dose–response – Inhibition; Inhibitor vs. normalized response) in GraphPad Prism 9.

H446 cells [2] = experiment: Cell viability, AlamarBlue HS assay; assay type: cell-based; conditions: Homo sapiens, NCI-H446, PARPi alone for 72 h, 3 independent experiments
Protocol: as §1

H446 cells [3] = experiment: Clonogenic assay; assay type: cell-based, human; conditions: 0.5 µM PARPi 72 h and/or 12.5 kBq [177Lu]Lu-DOTA-TOC 24 h, colonies after 7 days, mean of 2 independent experiments
Protocol: H446 cells were seeded in 6-well plates 48 h prior to the experiment. […] Following treatment, compounds were removed, and fresh medium was added. After 7 days, colonies were fixed with cold methanol, stained with 5% crystal violet in PBS and subsequently counted. Survival fractions were calculated by dividing the plating efficiency as counted colonies divided by seeded cells of the respective treatment group through the plating efficiency of the untreated control group.

bone marrow and kidney = experiment: Histopathology (H&E) after in vivo treatment; design: species or system athymic nude mice; conditions: H69 cohort, single dose study; day 3 after PRRT; one animal per group
Protocol: (§2) 10–15 days after xenografting, mice were randomized into 4 (H446) or 6 (H69) groups after stratification for tumor size to ensure a uniform initial tumor size distribution (H446: ~ 150 mm^3; H69: ~ 60 mm^3; Supplementary Fig. 2A, B). Mice in the PARPi and combination therapy groups received daily i.p. injections of PARPi on days 1–5 and 8–12 at a dose of 10 mg/kg. […] Length, width and depth of the subcutaneous tumors were measured daily using a caliper and tumor volume was calculated using the ellipsoid formula. Mice were weighed regularly after start of the treatment. Mice were euthanized when they reached pre-defined criteria. During the study, only the criteria of tumor growth (single dimension ≤ 15 mm) or maximum observation time came into effect. In the H69 cohort, one animal per group was euthanized 3 days after PRRT (or equivalent time) and tumor, bone and kidney tissues were processed for histopathology.
All samples were fixated in 4% PFA for 24 h and subsequently stored in 70% ethanol at 4 °C until the radioactivity had fully decayed. Samples containing bone for bone marrow analysis were decalcified using OSTEOSOFT® (Merck) solution. Formalin-fixed paraffin embedded (FFPE) tissues were cut into 2 µm sections using a microtome. After deparaffinization and rehydration, tissue sections were subjected to standard H&E staining. Tumor sections were additionally subjected to IHC. […]

H446 xenografts = experiment: In vivo treatment study, single PRRT dose; design: species or system athymic nude mice; conditions: for tumor doubling time: PARPi 10 mg/kg i.p. days 1–5 and 8–12, PRRT ~40 MBq single dose on day 3, untreated 3.6; for median survival: single PRRT dose study, untreated 12 days
Protocol: (§3) Authorization for all animal experiments was obtained from the Regierung von Oberbayern. Mice were housed under specific-pathogen free conditions with access to mouse chow and water ad libitum. Female 7–8 weeks old athymic nude mice (Crl:NU/NCr-Foxn1nu, Charles River Laboratories, Sulzfeld) were subcutaneously injected with 1–4 × 10^6 H69 or H446 cells in 1:1 RPMI-1640 medium:Matrigel (Corning Inc., #11543550). Animals were regularly monitored as defined in the license.
as §2

SCLC = conditions: six SCLC patients; no response on CT scans; cited from earlier work
Description: An alternative therapeutic approach for extended-stage disease could be peptide-receptor radionuclide therapy (PRRT) with somatostatin receptor (SSTR) ligands. The vast majority of SCLC (> 80%) express neuroendocrine markers, and about 50% of all SCLCs express significant levels of somatostatin-receptor type 2 (SSTR2). […] To date, clinical outcomes of retrospective series, which investigated SSTR2-targeted PRRT in SCLC have been rather inconclusive. In one trial, six patients treated with ^90Y-D ...

H69 xenografts [4] = experiment: In vivo treatment study, fractionated PRRT dose; design: species or system athymic nude mice; conditions: three-fractionated arm: 3 × 20 MBq PRRT days 3, 9, 15, Olaparib 10 mg/kg i.p. days 1–5, 7–11, 13–17, untreated 27 days
Protocol: as §3
Prior to the beginning of treatment, mice were randomly assigned to 7 treatment groups (n = 5–6 animals/group) with an initial mean tumor volume of approx. 50 mm^3 per group (Supplementary Fig. 2C). […] Body weight and tumor volumes were determined every 2–3 days. Animals were sacrificed when pre-defined endpoint criteria or humane endpoint was reached. In this study, only the pre-defined endpoint, a tumor volume of 1000 mm^3 with a maximal size of ≤ 15 mm in a single dimension, was reached. After a maximum observation period of 4 weeks after the last treatment, the study terminated in accordance with the animal protocol.

Row | Compound | tumor doubling time (H69 xenografts [1]) [days] | time after start of treatment to mean tumor volume of 400 mm^3 (H69 xenografts [1]; single PRRT dose study) [days] | IC50 (H69 cells) [µM] | IC50 (H446 cells [2]) [µM] | mean surviving fraction, of untreated cells (H446 cells [3]) [%] | angiectasis in the bone marrow (H&E) (bone marrow and kidney) | bone marrow cellularity (H&E) (bone marrow and kidney) | tumor doubling time (H446 xenografts) [days] | median survival (H446 xenografts) [days] | median progression-free survival (SCLC) [days] | median survival (H69 xenografts [1]; single PRRT dose study, untreated 18 days) [days] | median survival (H69 xenografts [4]) [days]
1 | CNCc1ccc(-c2[nH]c3cc(F)cc4c3c2CCNC4=O)cc1 [Rucaparib] | 4.1 | 13 | 20 to 40 | 20 to 40 | 13 | low levels of angiectasis | slight bone marrow hypercellularity | 3.9 | 13 | – | – | –
2 | O=C(c1cc(Cc2n[nH]c(=O)c3ccccc23)ccc1F)N1CCN(C(=O)C2CC2)CC1 [Olaparib] | 4.0 | 13 | 20 to 40 | 20 to 40 | 7 | – | – | – | – | – | – | –
3 | C[C@@H](O)[C@@H]1NC(=O)[C@H](CCCCN)NC(=O)[C@@H](Cc2c[nH]c3ccccc23)NC(=O)[C@H](Cc2ccc(O)cc2)NC(=O)[C@@H](NC(=O)[C@@H](Cc2ccccc2)NC(=O)CN2CCN(CC(=O)[O-])CCN(CC(=O)[O-])CCN(CC(=O)[O-])CC2)CSSC[C@@H](C(=O)N[C@H](CO)[C@@H](C)O)NC1=O.[90Y+3] [^90Y-DOTATOC] | – | – | – | – | – | – | – | – | – | 38 | – | –
4 | C[C@@H](O)[C@@H]1NC(=O)[C@H](CCCCN)NC(=O)[C@@H](Cc2c[nH]c3ccccc23)NC(=O)[C@H](Cc2ccc(O)cc2)NC(=O)[C@@H](NC(=O)[C@@H](Cc2ccccc2)NC(=O)CN2CCN(CC(=O)O)CCN(CC(=O)O)CCN(CC(=O)O)CC2)CSSC[C@@H](C(=O)N[C@H](CO)[C@@H](C)O)NC1=O [[^177Lu]Lu-DOTA-TOC, metal not drawn] | 6.4 | 17 | – | – | – | – | – | 3.7 | 11 | – | 24 | 34
